These results are taken from article PMC10218498, “Exploring BenzylethoxyAryl Urea Scaffolds for Multitarget Immunomodulation Therapies” (International Journal of Molecular Sciences, 2023).

Structures are written as SMILES. Where two headings read alike, the source gives them in different places.

Test [1] has as its target VEGFR-2 (Homo sapiens, UniProt P35968). Put plainly: VEGFR-2 relative quantification by flow cytometry in A-549. Set-up: Both membrane and total PD-L1 and VEGFR-2 were relatively determined using DMSO-treated cells as a negative control; endogenous in cells; host or cells: A-549. Type of test: cell-based. To be noted: A-549, 20 µM, 24 h, relative to DMSO control = 100. On the procedure: For these assays, cells were incubated for 24 h in the presence of the corresponding compounds at 20 µM concentration.
To study the effect of the compounds on every biological target in cancer cell lines, the compounds were used at 20 µM dose.
For the assay, 10^5 cells per well were incubated for 24 h with the corresponding dose of the tested compound in a total volume of 500 μL of their growth media.
On the one hand, to detect total PD-L1 and VEGFR-2, after the cell treatments, they were collected and fixed with 4% in PBS paraformaldehyde.
On the other hand, to detect membrane PD-L1 and VEGFR-2, the process was the same, avoiding the treatment with 0.5% in PBS TritonTM X-100 step.

In test [2] the test system is HT-29 cells. Put plainly: Cancer cell viability in monoculture and co-cultures with THP-1 by flow cytometry. Type of test: cell-based, human. To be noted: for morphological changes of HT-29 cells: 48 h co-culture with THP-1 at (1:5); for viability at 20 µM: Homo sapiens. On the procedure:
We also studied the effect of the selected compounds on tumor cell proliferation in the presence of human monocytic leukemia cell line THP-1. This assay was carried out using HT-29 as the cancer cell line and different proportions of immune cells. Standard proportions for this assay were 1:5 cancer/immune cells. Additionally, we also carried out this assay using a 2:1 proportion of cancer cells as regards immune THP-1 cells. Assays were performed after 24 and 48 h of treatment, using 20 μM doses of selected compounds and BMS-8 as the reference compound.
First, to study the effect of the compounds on the cell viability in monoculture, 10^5 of cancer cell line per well were seeded and incubated for 24 h; then, the corresponding compound at 20 μM or DMSO for the positive control were added. After 24 h of incubation, cancer cells were collected with trypsin and fixed with 4% in PBS paraformaldehyde and counted by flow cytometry.
On the other hand, to study the effect of the compounds on the cell viability in co-culture with THP-1 cells, 10^5 or 2 × 10^5 of the HT-29 cells line per well were seeded and incubated for 24 h, then the medium was changed by one cell culture medium supplemented with IFN-γ (10 ng/mL; human, Invitrogen®, Waltham, MA, USA) and containing 5 × 10^5 or 105, respectively, of THP-1 per well and the corresponding compound at 20 μM or DMSO for the positive control. After 24 h/48 h of incubation, supernatants were collected to determine THP-1 living cells. Additionally, stain cancer cells were collected with trypsin. Both types of suspension cells were fixed with 4% in PBS paraformaldehyde and counted by flow cytometry.
On the technique in general: Flow cytometry measures light scatter and fluorescence of single cells or particles in a stream.

The test system of test [3] is human microvessel endothelial cells (HMEC-1). Put plainly: MTT cell proliferation assay, HMEC-1. Type of test: cell-based. To be noted: 48 h of treatment. On the procedure: This assay allowed us to establish the corresponding IC50 values (expressed as the concentration, in μM, at which 50% of cell viability is achieved), shown in Table 1.
In 96-well plates, 5 × 10^3 (HT-29, MCF-7, A549, HMEC-1, Jurkat, and HEK-293) cells per well were incubated with serial dilutions of the tested compounds in a total volume of 100 μL of their respective growth media. The 3-(4,5-dimethylthiazol-2-yl)-2,5-diphenyltetrazolium bromide (MTT; Sigma Chemical Co.) dye reduction assay in 96-well microplates was used. After 2 days of incubation (37 °C, 5% CO2 in a humid atmosphere), 10 μL of MTT (5 mg/mL in phosphate-buffered saline, PBS) was added to each well, and the plate was incubated for a further 3 h (37 °C). After that, the supernatant was discarded and replaced by 100 µL of DMSO to dissolve formazan crystals. The absorbance was then read at 550 nm by spectrophotometry. For all concentrations of compound, cell viability was expressed as the percentage of the ratio between the mean absorbance of treated cells and the mean absorbance of untreated cells. Three independent experiments were performed, and the IC50 values (i.e., concentration half inhibiting cell proliferation) were graphically determined using GraphPad Prism 4 software.
(In general: Tetrazolium assays rely on reduction of a dye to a coloured formazan, in cell work by metabolically active cells.)

Test [4] relates to Fyn. Put plainly: Immunoblotting of OT-1 CTL signaling proteins: FYN. The format is cell-based, mice. The note with it: OT-1, 20 μM, 24 h. From the text: We next studied the effect of our compounds on the signaling cascade downstream of the TCR. […] However, both the expression and phosphorylation of LCK were increased in response to all compounds. The effects on ZAP70 and LAT were more complex, with opposing effects on total protein expression versus phosphorylation. Thus, all compounds modulated signaling downstream of the TCR in a manner that is likely to impact T-cell activation and activity.
CD8+ cells were obtained from the inguinal, axillary, brachial, and mesenteric lymph nodes previously collected from OT-1 mice. Lymph node cells were isolated by mashing through a […] cell strainer. Cells were resuspended in IMDM cell media at a concentration of 0.3 million cells/mL. N4 ovalbumin peptide was added at a concentration of 10 nM, and cells were incubated for 48 h at 5% CO2, 37 °C. On day 2 from recollection, cells were pelleted at 1300 rpm for 5 min and washed with PBS to remove N4 peptide. The cell pellet was resuspended in fresh IMDM media in a new flask in a 0.3 million cells/mL and supplemented with IL-2 at 20 ng/mL. After incubation for a further 48 h (day 4), cells were re-seeded in fresh IMDM media at a concentration of 0.3 million cells/mL supplemented with IL-2 at 20 ng/mL. Cells were cultured for a further 48 h prior to use on day 6 in functional assays.
To study the effect of the compounds in the signaling pathway of CTLs, the compound was incubated for 24 h at 20 μM. After this time, cells were collected and washed twice in PBS and lysed in radioimmunoprecipitation assay (RIPA) lysis buffer (50 mM tris-HCl at pH 7.4, 150 mM sodium chloride, 5 mM EGTA, 0.1% SDS, 1% NP-40, and 1% deoxycholate) supplemented with a protease and phosphatase inhibitor cocktail (mini complete ULTRA Protease tablet and phosSTOP tablet from Roche, Basel, Switzerland). Lysates were clarified by high-speed centrifugation (17,000 rpm for 15 min at 4 °C). Protein concentration was measured using a Micro BCA Protein Assay (Thermo Scientific, Waltham, MA, USA), and 10 μg to 30 μg of total protein were supplemented with 2X SDS sample buffer [tris (pH 6.8), 20% glycerol, 5% SDS, b-mercaptoethanol, and bromophenol blue) and boiled at 95 °C for 5 min. […] Bound Ab was detected by incubation with anti-rabbit and anti-mouse horseradish peroxidase secondary Ab (Cell Signaling Technology) and visualized using the Bio-Rad ChemiDoc MP Imaging System.
For orientation: A western blot detects proteins with antibodies after separation by electrophoresis.

Setting [5] is: HT-29 monoculture, 20 μM, read-out: cancer cell viability (%), Monocult. HT-29.
The mark [6] stands for this setting: co-culture 1:5 HT-29/THP-1, 20 μM, 24 h, read-out: cancer cell viability (%), 1:5 HT-29/THP-1, 24 h.
Where [7] appears, read: co-culture 1:5 HT-29/THP-1, 20 μM, 48 h, read-out: cancer cell viability (%), 1:5 HT-29/THP-1, 48 h.
Where [8] appears, read: co-culture 2:1 HT-29/THP-1, 20 μM, 24 h, read-out: cancer cell viability (%), 2:1 HT-29/THP-1, 24 h.
Where [9] appears, read: co-culture 2:1 HT-29/THP-1, 20 μM, 48 h, read-out: cancer cell viability (%), 2:1 HT-29/THP-1, 48 h.
Setting [10] is: co-culture (1:5) HT-29/THP-1, 24 h, 20 μM.
The mark [11] stands for this setting: co-culture (2:1) HT-29/THP-1, 24 h, 20 μM.

Sequence of VEGFR-2 (P35968 20-1356): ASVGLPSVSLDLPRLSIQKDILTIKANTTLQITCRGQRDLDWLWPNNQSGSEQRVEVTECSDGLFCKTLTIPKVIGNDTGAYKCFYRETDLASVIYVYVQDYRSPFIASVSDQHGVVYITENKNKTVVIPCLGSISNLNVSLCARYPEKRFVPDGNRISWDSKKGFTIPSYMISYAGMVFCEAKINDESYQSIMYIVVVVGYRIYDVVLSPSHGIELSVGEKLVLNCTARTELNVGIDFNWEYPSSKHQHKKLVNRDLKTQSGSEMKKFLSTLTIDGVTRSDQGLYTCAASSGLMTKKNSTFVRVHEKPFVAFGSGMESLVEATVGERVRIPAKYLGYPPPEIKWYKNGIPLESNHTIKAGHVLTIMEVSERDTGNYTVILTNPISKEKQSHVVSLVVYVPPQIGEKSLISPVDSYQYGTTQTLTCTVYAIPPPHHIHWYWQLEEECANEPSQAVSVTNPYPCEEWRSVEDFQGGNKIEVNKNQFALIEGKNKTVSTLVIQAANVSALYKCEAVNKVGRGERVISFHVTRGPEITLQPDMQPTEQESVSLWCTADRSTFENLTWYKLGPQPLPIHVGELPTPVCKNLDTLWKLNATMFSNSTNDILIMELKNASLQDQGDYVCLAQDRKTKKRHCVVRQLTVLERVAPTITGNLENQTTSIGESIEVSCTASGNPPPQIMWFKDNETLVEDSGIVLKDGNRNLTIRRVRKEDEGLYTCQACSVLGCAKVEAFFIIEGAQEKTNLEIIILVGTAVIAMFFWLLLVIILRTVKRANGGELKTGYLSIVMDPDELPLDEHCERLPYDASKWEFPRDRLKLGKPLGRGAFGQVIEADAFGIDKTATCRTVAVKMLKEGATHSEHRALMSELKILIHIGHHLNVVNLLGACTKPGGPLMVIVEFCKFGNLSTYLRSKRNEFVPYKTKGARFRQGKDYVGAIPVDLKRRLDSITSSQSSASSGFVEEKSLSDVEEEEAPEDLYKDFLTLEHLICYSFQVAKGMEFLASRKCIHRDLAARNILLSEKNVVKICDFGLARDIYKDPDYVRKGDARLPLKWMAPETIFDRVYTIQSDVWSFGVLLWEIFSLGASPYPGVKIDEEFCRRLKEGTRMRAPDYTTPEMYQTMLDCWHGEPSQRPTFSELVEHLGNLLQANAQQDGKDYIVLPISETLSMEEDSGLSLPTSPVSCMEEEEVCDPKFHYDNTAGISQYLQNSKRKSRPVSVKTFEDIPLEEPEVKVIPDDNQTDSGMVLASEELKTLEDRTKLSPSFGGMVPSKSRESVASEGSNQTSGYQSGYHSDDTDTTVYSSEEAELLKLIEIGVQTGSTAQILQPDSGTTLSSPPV

Regarding `Cc1c(COc2ccc(CN3CCCCC3C(=O)O)cc2Br)cccc1-c1ccccc1` (centres unmarked) [BMS-8, reference compound], in test [1], the “Total VEGFR-2 (%)” value turned out to be 122 ± 13%. Besides, the “morphological changes of HT-29 cells” value in test [2] (20 μM) is “retained this epithelial nature, resulting in an increased and brighter cytosolic granulation”. For the same compound, the viability at 20 µM worked out at 102 ± 23% in test [2] (setting [5]); 88 ± 3% in test [2] (setting [6]); 102 ± 12% in test [2] (setting [7]); 106 ± 10% in test [2] (setting [8]); 101 ± 3% in test [2] (setting [9]).
In test [3], `COc1ccc(COc2cccc(NC(=O)Nc3ccc(F)cc3)c2)cc1` [Compound 2] showed an IC50 of over 100 µM. Moreover, the “Total VEGFR-2 (%)” value in test [1] came out at 97 ± 12%. Besides, the “FYN protein expression (Western blot quantification)” value (shortened to “FYN protein expression”) in test [4] is on record as 101. In test [2] (20 μM), the “morphological changes of HT-29 cells” value is given as “less confluent cultures with a few elongated fibroblast-like appearance cells”. Further, the viability at 20 µM in test [2] (setting [5]) turned out to be 89 ± 7%; in test [2] (setting [6]), 80 ± 4%; in test [2] (setting [7]) it was 102 ± 16%; in test [2] (setting [8]), 83 ± 5%; in test [2] (setting [9]), 95 ± 5%. Also, the “inhibition of cell viability (HT-29)” value in test [2] (setting [10]) and in test [2] (setting [11]) was 20% in each case.
Regarding `COc1ccc(COc2cccc(NC(=O)Oc3ccccc3)c2)cc1` [Compound 14], the IC50 in test [3] is over 100 µM. Moreover, the “Total VEGFR-2 (%)” value in test [1] was determined as 107 ± 18%. Besides, the “FYN protein expression” value in test [4] stood at 102. Also, in test [2] (20 μM), the “morphological changes of HT-29 cells” value was “slight loss of cell-to-cell contact and the appearance of clustered cells with irregular surfaces”. The viability at 20 µM stood at 82 ± 4% in test [2] (setting [5]); 90 ± 6% in test [2] (setting [6]); 97 ± 5% in test [2] (setting [7]); 88 ± 9% in test [2] (setting [8]); 85 ± 14% in test [2] (setting [9]).
For the compound `COc1ccc(COc2cccc(NC(=O)Nc3ccc(Br)cc3)c2)cc1` [Compound 8], in test [3], the IC50 is over 100 µM. Also, the “Total VEGFR-2 (%)” value in test [1] is reported as 141 ± 13%. Moreover, in test [2] (20 μM), the “morphological changes of HT-29 cells” value is given as “less confluent cultures with a few elongated fibroblast-like appearance cells”. In addition, the viability at 20 µM is 86 ± 9% in test [2] (setting [5]); 83 ± 13% in test [2] (setting [6]); 106 ± 8% in test [2] (setting [7]); 95 ± 16% in test [2] (setting [8]); 92 ± 20% in test [2] (setting [9]).
In test [3], `COc1ccc(COc2cccc(NC(=O)Nc3ccc(OC)cc3)c2)cc1` [Compound 11] had an IC50 of over 100 µM. Besides, the “Total VEGFR-2 (%)” value in test [1] worked out at 143 ±10%. The “FYN protein expression” value in test [4] turned out to be 109. The “morphological changes of HT-29 cells” value in test [2] (20 μM) is reported as “less confluent cultures with a few elongated fibroblast-like appearance cells”. In addition, the viability at 20 µM in test [2] (setting [5]) was determined as 95 ± 21%; in test [2] (setting [6]), 86 ± 4%; in test [2] (setting [7]), 119 ± 14%; in test [2] (setting [8]), 88 ± 3%; in test [2] (setting [9]), 85 ± 11%. Besides, the “cancer cell viability (%), 2:1 HT-29/THP-1, 48 h” value in test [2] (co-culture 2:1 HT-29/THP-1, 20 μM, 48 h) is “active”. Besides, the “inhibition of cell viability (HT-29)” value in test [2] (setting [10]) and in test [2] (setting [11]) was 20% in each case.

In general, IC50 refers to the midpoint of a concentration-inhibition curve. Read a low IC50 as greater potency.
